# Source: publication PMC8615155 (Antioxidants, 2021)
# Like-named read-outs stand apart in the source and are kept apart here.
# Assays:
# [1] = system: TrxR1; design: method as in PMID 21262347; conditions: cited from earlier work
# [2] = target: T1, cellular TrxR in HeLa cells (Homo sapiens, UniProt Q16881); assay: Cellular TrxR activity, end-point Trx-coupled insulin assay; format: cell-based; conditions: HeLa cells vs untreated controls
# T1 construct: endogenous in cells; host or cells: HeLa
# T1 sequence (Q16881 1-499 isoform Q16881-5): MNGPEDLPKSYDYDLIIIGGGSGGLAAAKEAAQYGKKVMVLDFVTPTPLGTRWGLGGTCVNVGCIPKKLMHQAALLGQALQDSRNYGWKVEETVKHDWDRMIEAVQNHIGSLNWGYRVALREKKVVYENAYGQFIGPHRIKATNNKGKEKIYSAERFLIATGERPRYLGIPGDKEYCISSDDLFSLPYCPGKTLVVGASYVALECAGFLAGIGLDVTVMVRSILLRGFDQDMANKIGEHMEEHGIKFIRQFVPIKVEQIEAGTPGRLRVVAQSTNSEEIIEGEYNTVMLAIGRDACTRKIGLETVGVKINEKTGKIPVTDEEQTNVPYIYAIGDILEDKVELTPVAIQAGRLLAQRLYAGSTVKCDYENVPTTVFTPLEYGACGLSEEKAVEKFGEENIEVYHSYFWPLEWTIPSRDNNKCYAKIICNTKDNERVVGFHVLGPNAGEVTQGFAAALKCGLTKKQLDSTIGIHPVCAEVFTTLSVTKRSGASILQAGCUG
# Experimental: The cells were then collected and washed twice with ice-cold PBS. The total cell proteins were extracted with the RIPA buffer on ice for 30 min. The TrxR activities in the cell lysates were measured by the end-point Trx-coupled insulin assay and the protein concentration was determined by BCA protein assay kit (Sangon, Shanghai, China), using bovine serum albumin (BSA) as protein standard.
# [3] = system: HeLa cells; assay: ROS generation with DCFH-DA; format: cell-based, Human; conditions: 12 h, up to 50 µM
# Experimental: After removing the medium, 10 µM DCFH-DA was added and incubated at 37 °C in darkness for 30 min. The cells were then observed and photographed using a Leica inverted fluorescence microscopy (Leica, Germany).
# [4] = system: A549 cells; assay: MTT cell viability A549; format: cell-based, Human; conditions: read-out: IC50 values on cancer cell lines
# Experimental: (§1) Human HeLa, A549, HepG2, SH-SY5Y, MCF7 and AGS cells were cultured in DMEM containing 10% FBS, respectively. HCT116 cells were cultured in McCoy’s 5A medium (Procell, Wuhan, China) containing 10% FBS. The cells were cultured in medium containing 100 IU/mL penicillin, 100 µg/mL streptomycin (1% antibiotics) and 25 nM selenite at 37 °C in a humidified incubator with 5% CO2 (Thermo Fisher Scientific, Waltham, MA, USA).
# (§2) MTT assay was used to detect cell viability. In brief, cells were seeded in 96-well plates with 5000 cells per well and allowed to stick overnight. […] After treatment, the cell medium was carefully removed from the cultured cells and added with 100 µL fresh FBS-free medium containing 0.5 mg/mL MTT. The medium was incubated in an incubator for 4 h. Then, the medium was removed, and the formazan crystals formed were dissolved in 100 µL DMSO. The absorbance was measured at 570 nm, and 630 nm was set as the reference. The experiments were repeated four times.
# [5] = system: HeLa cells; assay: MTT cell viability HeLa; format: cell-based, Human; conditions: read-out: IC50 values on cancer cell lines
# Experimental: as §1, §2
# [6] = system: HepG2 cells; assay: MTT cell viability HepG2; format: cell-based, Human; conditions: read-out: IC50 values on cancer cell lines
# Experimental: as §1, §2
# [7] = system: MCF7 cells; assay: MTT cell viability MCF7; format: cell-based, Human; conditions: read-out: IC50 values on cancer cell lines
# Experimental: as §1, §2
# [8] = system: HCT116 cells; assay: MTT cell viability HCT116; format: cell-based, Human; conditions: for IC50: read-out: IC50 values on cancer cell lines
# Experimental: as §1, §2
# [9] = system: AGS cells; assay: MTT cell viability AGS; format: cell-based, Human
# Experimental: as §1, §2
# [10] = system: SH-SY5Y cells; assay: MTT cell viability SH-SY5Y; format: cell-based, Human; conditions: 48 h, read-out: IC50 values on cancer cell lines
# Experimental: as §1, §2
# [11] = target: T2, TrxR1 (Rattus norvegicus, UniProt O89049); assay: NADPH oxidase activity of TrxR1 (juglone reduction); format: biochemical; conditions: 500 µM, 30 min in dark, juglone as substrate
# T2 sequence (O89049 1-499): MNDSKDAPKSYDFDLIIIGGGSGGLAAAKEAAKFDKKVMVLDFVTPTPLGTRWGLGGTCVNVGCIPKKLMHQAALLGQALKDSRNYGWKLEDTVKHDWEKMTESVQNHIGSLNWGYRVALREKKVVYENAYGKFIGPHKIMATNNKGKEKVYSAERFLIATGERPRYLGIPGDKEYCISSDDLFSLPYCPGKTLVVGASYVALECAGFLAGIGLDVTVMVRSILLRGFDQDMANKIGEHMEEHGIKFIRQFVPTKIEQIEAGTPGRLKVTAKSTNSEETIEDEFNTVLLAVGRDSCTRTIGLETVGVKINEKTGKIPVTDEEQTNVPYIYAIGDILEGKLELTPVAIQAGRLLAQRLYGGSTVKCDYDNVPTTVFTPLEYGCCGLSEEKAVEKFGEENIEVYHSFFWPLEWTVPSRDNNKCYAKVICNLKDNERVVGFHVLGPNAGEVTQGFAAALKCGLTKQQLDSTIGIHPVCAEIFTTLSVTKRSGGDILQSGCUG
# Experimental: NADPH oxidase activity of TrxR1 was measured by juglone reduction method. The final reaction mixture consisted of 30 nM TrxR1, 30 µM juglone (in DMSO) and 200 µM NADPH.
# [12] = target: T3, wild type TrxR1 (Rattus norvegicus, UniProt O89049)
# T3 sequence (O89049 1-499): T2 sequence (O89049 1-499)
# Experimental: (§3) All food colorants were dissolved in DMSO to prepare a stock solution. […] 5,5′-dithiobis-2-nitrobenzoic acid (DTNB), 3-(4,5)-dimethylthiahiazo (-z-y1)-3,5-di-phenytetrazoliumromide (MTT) and ROS probe DCFH-DA were purchased from Sigma-Aldrich (St Louis, MI, USA). A 50 mM Tris-HCl containing 2 mM EDTA (pH 7.5) was used in all protein-based experiments, if not stated otherwise.
# (§4) The enzymatic activities of TrxR1 and its various mutants were determined in parallel with DTNB and 9,10-panathrenequinone (9,10 PQ) as substrates [17]. In DTNB reduction assay, the working reaction mixtures contained 10 nM TrxR1, 2.5 mM DTNB and 300 µM NADPH in 50 mM Tris-HCl and 2 mM EDTA, pH 7.5. […] In the 9,10 PQ reduction assay, the working reaction mixtures contained 30 nM TrxR1, 30 µM 9,10 PQ and 200 µM NADPH, followed by NADPH oxidation at 340 nm for 20 min at room temperature, according to the linear region of the decrease curves (assuming ƐNADPH, 340 nm = 6200 M^−1 cm^−1).
# [13] = target: T3, wild type TrxR1; assay: TrxR1 DTNB reduction assay
# Experimental: as §3, §4
compound,measurement,setting,value
C=CC1=C(C)c2cc3[nH]c(cc4nc(cc5[nH]c(cc1n2)c(C)c5CCC(=O)O)C(CCC(=O)O)=C4C)c(C)c3C=C [PpIX],Kinact in TrxR1 mediated Trx-coupled insulin reduction,[1],0.0003 µM⁻¹ min⁻¹
same,Ki,[1]; read-out: apparent Ki on TrxR1's Trx reduction,2700 nM
hemin,Kinact in TrxR1 mediated Trx-coupled insulin reduction,[1],0.00026 µM⁻¹ min⁻¹
Sodium copper chlorophyll [chlorophyllin],Inhibition of cellular TrxR1 activity,[2],remarkable inhibition
same,Fluorescent signals of ROS probe DCFH-DA,[3],much higher
same,IC50,"[4]; A549, 24 h",40.7 ± 3.9 µM
same,IC50,"[4]; A549, 48 h",10.3 ± 1.4 µM
same,IC50,[5]; 24 h,47.9 ± 13.5 µM
same,IC50,[5]; 48 h,10.4 ± 4.3 µM
same,IC50,"[6]; HepG2, 24 h",36.8 ± 11.2 µM
same,IC50,"[6]; HepG2, 48 h",10.2 ± 3 µM
same,IC50,"[7]; MCF7, 24 h",30.1 ± 7.1 µM
same,IC50,"[7]; MCF7, 48 h",6.9 ± 1.1 µM
same,IC50,"[8]; HCT116, 24 h",43.5 ± 2.6 µM
same,IC50,"[8]; HCT116, 48 h",20.2 ± 0.8 µM
same,IC50,"[9]; 48 h, read-out: IC50 values on cancer cell lines",49.6 ± 24.7 µM
same,IC50,[10],31.7 ± 6.7 µM
CC1=C[C@H](O)CC(C)(C)[C@H]1/C=C/C(C)=C/C=C/C(C)=C/C=C/C=C(C)/C=C/C=C(C)/C=C/C1=C(C)C[C@@H](O)CC1(C)C [lutein],Inhibition of NADPH oxidation activity of TrxR1,[11],no inhibition
same,Time dependence of TrxR1 inhibition,[12],time-dependent manner
same,IC50,[13],306 µM
"CC(=O)OC[C@H]1O[C@@H]([S-])[C@H](OC(C)=O)[C@@H](OC(C)=O)[C@@H]1OC(C)=O.CCP(CC)CC.[Au+] [auranofin, reference compound]",Effect of pre-treatment on sensitivity of HCT116 cells to chlorophyllin,"[8]; auranofin 2.5 h pre-treatment, then chlorophyllin",increasing the sensitivity
"CC(=O)N[C@@H](CS)C(=O)O [NAC, N-acetyl-L-cysteine, reference compound]",Effect of co-treatment on chlorophyllin cytotoxicity,"[8]; HCT116, 100 µM or 500 µM NAC, 24 h co-treatment",protect cell from chlorophyllin
same,Effect of co-treatment on chlorophyllin cytotoxicity,"[9]; 100 µM or 500 µM NAC, 24 h co-treatment",protect cell from chlorophyllin
